# Assay results: patent publication US8492344B2, “PDK inhibitor compounds and methods of use thereof” (University of Florida Research Foundation, priority 2008, dated 2013)
# What was measured:
# Solubility in DMSO = format: physicochemical
# PDH activity = PDH activity in human fibroblast cultures (14CO2 from [1-14C]-pyruvate); format: cell-based; conditions: for PDH activity stimulation at 0.25 mM: tested at 0.25 mM, data not shown; for Potency relative to DCA in improving PDH activity at the lowest concentration tested: dose-response 0.01 to 5 mM, lowest concentration printed as 0.01 μM; for Potency relative to DCA in increasing PDH activity / Change of PDH activity at 5 mM: dose-response; for Potency relative to DCA in increasing PDH activity: 0.01 mM; for PDH activity vs DMSO control (result in words): initial studies, maximum feasible dose (0.25 to 2 mM), 24 h, 3 cell lines, p≦0.05
# Protocol: PDH complex activity was measured by the rate of ^14C formation from [1-^14C]-labeled pyruvate, as described in Mitochondrion 6:126-135 (2006) or Mitochondrion. 7: 253-259 (2007). Fibroblasts harvested by trypsinization from a confluent T-75 flask were washed in phosphate-buffered saline (PBS) and resuspended in PBS containing the serine protease inhibitors leupeptin and phenylmethylsulfonyl fluoride (PMSF). Cells were incubated for 15 min at 37° C. with DCA. Reactions were halted by addition of a stop solution (25 mM NaF, 25 mM EDTA, 4 mM dithiothreitol, 40% ethanol), and cells were lysed by repeated freezing and thawing. Sixteen aliquots of each fibroblast sample were assayed in test tubes for enzyme activity. Four samples that contained only lysate and water and four samples that also contained thiamine pyrophosphate and coenzyme A were assayed at reaction times of 5 and 10 min. A ^14C-labeled pyruvate aliquot of known specific activity was added to the cell lysates and the test tubes were immediately closed with a rubber stopper. The stopper was outfitted with a center well (Kimble-Kontes, Vineland, N.J.) that contained 1 cm^2 chromatography paper soaked with 100 μl hyamine hydroxide. Reactions were halted by adding stopping buffer. The ^14CO2 evolved due to PDH-mediated catalysis and trapped in the paper was determined by liquid scintillation. PDH specific activity was expressed as nmol ^14CO2 produced/min/mg protein. Excess cell lysate was used to determine total protein.
# The compounds (predicted to interact with PDK2) were tested in human fibroblast cultures from three healthy subjects for their effect on PDH activity. DCA and dimethyl sulfoxide (DMSO) were used as positive and vehicle controls, respectively. Drugs were dissolved in DMSO and were used at maximum feasible dose in initial studies (0.25 to 2 mM). For dose-response experiments, concentrations used were: 0.01, 0.05, 0.1, 0.5, 1, and 5 mM. DCA was used as positive control. Cells were exposed to media with DCA, NCI compounds or DMSO vehicle for the final 24 h of culture.
# Primary cultures of fibroblasts were grown at 37° C. in a humidified 5% CO2/95% air atmosphere in DMEM supplemented with 20% (v/v) FBS, 100 U/mL penicillin, 100 μg/mL streptomycin, and 6 mM L-glutamine.
# Cell lysates treated with DCA or NCI compounds were incubated in a reaction buffer that contained [1-^14C]-pyruvate. PDH activity was measured by quantitation of liberated ^14CO2. (Han et al., 2007. Down-regulation of rat pyruvate dehydrogensae E1a gene by self-complementary adeno-associated virus-mediated small interfering RNA delivery. Mitochondrion. 7: 253-259). Each sample was run in triplicate, with appropriate blanks.
Compound,Solubility in DMSO (Solubility in DMSO),PDH activity stimulation at 0.25 mM (PDH activity),Potency relative to DCA in improving PDH activity at the lowest concentration tested (PDH activity),Potency relative to DCA in increasing PDH activity (PDH activity),Change of PDH activity at 5 mM (PDH activity),PDH activity vs DMSO control (result in words) (PDH activity)
"O=C(O)CS(=O)(=O)O [Compound 5, 2-sulfoacetic acid]",poorly soluble in DMSO,none of these compounds stimulated PDH activity,,,,
"O=C(O)Cc1nnn[nH]1 [Compound 6, 2-(2H-tetrazol-5-yl)acetic acid]",poorly soluble in DMSO,none of these compounds stimulated PDH activity,,,,
"O=C(O)C(=O)C(=O)O [Compound 7, 2-oxopropanedioic acid]",poorly soluble in DMSO,none of these compounds stimulated PDH activity,,,,
"CC(=CC(=O)O)C(=O)O [Compound 10, 2-methylbut-2-enedioic acid]",,,may be more potent than DCA,more potent than DCA,significant decrease in PDH activity,significantly increased PDH activity
"CC(O)C(O)C(=O)O (stereo not shown) [Compound 12, 2,3-dihydroxybutanoic acid]",,,,,,significantly increased PDH activity
"O=C(O)Cc1cnc[nH]1 [Compound 14, 2-(3H-imidazol-4-yl)acetic acid]",,,may be more potent than DCA,more potent than DCA,increased PDH activity,significantly increased PDH activity
"C/C(Cl)=C\C(=O)O [Compound 18, (E)-3-chlorobut-2-enoic acid]",,,,,significant decrease in PDH activity,significantly increased PDH activity
"C/C=C\C(=O)O [Compound 24, (Z)-but-2-enoic acid]",,,,,,significantly increased PDH activity
"O=CNCC(=O)O [Compound 25, 2-formamidoacetic acid]",,,,,,significantly increased PDH activity
